Assay results: patent US20080207573A1, “COMPOUNDS FOR TREATING VIRAL INFECTIONS” (priority 2006, published 2008)

System: HIV-1 laboratory strain, NL4-3
Assay: MT-4 Cytoprotection Assay (protection from HIV-induced cytopathic effect, WST-1 readout)
Format: cell-based
Settings: Human immunodeficiency virus 1, NL43; list of representative compounds; read-out: EC50 of less than about 100 nm (representative compounds)
Method: MT-4 Cytoprotection Assay
The HTLV-1 transformed T cell line, MT-4, is highly susceptible to HIV-1 infection. Anti-HIV-1 agents were evaluated in this target cell line by protection from the HIV-induced cytopathic effect. In this assay, viability of both HIV-1 and mock-infected cells was assessed in a […] assay that monitors the ability of metabolically-active cells to reduce the tetrazolium salt WST-1. Cytoprotection by antiviral compounds is indicated by the positive readout of increased WST-1 cleavage.
Briefly, exponentially growing MT-4 cells were mock-infected or batch-infected with the HIV-1 laboratory strain, NL4-3, at a multiplicity of infection of 0.0005. Following a two hour infection, the cells were washed to remove unbound virus and plated in the presence of increasing concentrations of compound. After four days incubation, cytoprotection in the infected cells and compound toxicity in mock-infected cells were analyzed using the WST-1 assay.

Structure (SMILES): C=C(C)[C@@H]1CC[C@]2(C(=O)NCc3ccc(OC)cc3)CC[C@]3(C)[C@H](CC[C@@H]4[C@@]5(C)CC[C@H](OC(=O)CC(C)(C)C(=O)O)C(C)(C)[C@@H]5CC[C@]43C)[C@@H]12 [Compound 69]
- EC50: < 0.1 µM

Structure (SMILES): C=C(C)[C@@H]1CC[C@]2(C(=O)NCc3ccco3)CC[C@]3(C)[C@H](CC[C@@H]4[C@@]5(C)CC[C@H](OC(=O)CC(C)(C)C(=O)O)C(C)(C)[C@@H]5CC[C@]43C)[C@@H]12 [Compound 74]
- EC50: < 0.1 µM

Structure (SMILES): C=C(C)[C@@H]1CC[C@]2(C(=O)NCc3ccncc3)CC[C@]3(C)[C@H](CC[C@@H]4[C@@]5(C)CC[C@H](OC(=O)CC(C)(C)C(=O)O)C(C)(C)[C@@H]5CC[C@]43C)[C@@H]12 [Compound 75]
- EC50: < 0.1 µM

Structure (SMILES): C=C(C)[C@@H]1CC[C@]2(C(=O)Nc3ccc(OC)cc3)CC[C@]3(C)[C@H](CC[C@@H]4[C@@]5(C)CC[C@H](OC(=O)CC(C)(C)C(=O)O)C(C)(C)[C@@H]5CC[C@]43C)[C@@H]12 [Compound 77]
- EC50: < 0.1 µM

Structure (SMILES): C=C(C)[C@@H]1CC[C@]2(C(=O)NCc3ccccc3OC)CC[C@]3(C)[C@H](CC[C@@H]4[C@@]5(C)CC[C@H](OC(=O)CC(C)(C)C(=O)O)C(C)(C)[C@@H]5CC[C@]43C)[C@@H]12 [Compound 78]
- EC50: < 0.1 µM

Structure (SMILES): C=C(C)[C@@H]1CC[C@]2(C(=O)NCc3cccc(OC)c3)CC[C@]3(C)[C@H](CC[C@@H]4[C@@]5(C)CC[C@H](OC(=O)CC(C)(C)C(=O)O)C(C)(C)[C@@H]5CC[C@]43C)[C@@H]12 [Compound 79]
- EC50: < 0.1 µM

Structure (SMILES): C=C(C)[C@@H]1CC[C@]2(C(=O)NCc3ccc(Cl)cc3)CC[C@]3(C)[C@H](CC[C@@H]4[C@@]5(C)CC[C@H](OC(=O)CC(C)(C)C(=O)O)C(C)(C)[C@@H]5CC[C@]43C)[C@@H]12 [Compound 80]
- EC50: < 0.1 µM

Structure (SMILES): C=C(C)[C@@H]1CC[C@]2(C(=O)N[C@H](C)c3ccc(OC)cc3)CC[C@]3(C)[C@H](CC[C@@H]4[C@@]5(C)CC[C@H](OC(=O)CC(C)(C)C(=O)O)C(C)(C)[C@@H]5CC[C@]43C)[C@@H]12 [Compound 81]
- EC50: < 0.1 µM

Structure (SMILES): C=C(C)[C@@H]1CC[C@]2(C(=O)NCc3ccc4c(c3)OCO4)CC[C@]3(C)[C@H](CC[C@@H]4[C@@]5(C)CC[C@H](OC(=O)CC(C)(C)C(=O)O)C(C)(C)[C@@H]5CC[C@]43C)[C@@H]12 [Compound 82]
- EC50: < 0.1 µM

Structure (SMILES): C=C(C)[C@@H]1CC[C@]2(C(=O)NCc3ccc4c(c3)OCCO4)CC[C@]3(C)[C@H](CC[C@@H]4[C@@]5(C)CC[C@H](OC(=O)CC(C)(C)C(=O)O)C(C)(C)[C@@H]5CC[C@]43C)[C@@H]12 [Compound 84]
- EC50: < 0.1 µM

Structure (SMILES): C=C(C)[C@@H]1CC[C@]2(C(=O)NCc3ccc4occc4c3)CC[C@]3(C)[C@H](CC[C@@H]4[C@@]5(C)CC[C@H](OC(=O)CC(C)(C)C(=O)O)C(C)(C)[C@@H]5CC[C@]43C)[C@@H]12 [Compound 87]
- EC50: < 0.1 µM

Structure (SMILES): C=C(C)[C@@H]1CC[C@]2(C(=O)NCCc3cccc(OC)c3)CC[C@]3(C)[C@H](CC[C@@H]4[C@@]5(C)CC[C@H](OC(=O)CC(C)(C)C(=O)O)C(C)(C)[C@@H]5CC[C@]43C)[C@@H]12 [Compound 88]
- EC50: < 0.1 µM

Structure (SMILES): C=C(C)[C@@H]1CC[C@]2(C(=O)NCCc3ccncc3)CC[C@]3(C)[C@H](CC[C@@H]4[C@@]5(C)CC[C@H](OC(=O)CC(C)(C)C(=O)O)C(C)(C)[C@@H]5CC[C@]43C)[C@@H]12 [Compound 91]
- EC50: < 0.1 µM

Structure (SMILES): C=C(C)[C@@H]1CC[C@]2(C(=O)NCCc3ccccn3)CC[C@]3(C)[C@H](CC[C@@H]4[C@@]5(C)CC[C@H](OC(=O)CC(C)(C)C(=O)O)C(C)(C)[C@@H]5CC[C@]43C)[C@@H]12 [Compound 92]
- EC50: < 0.1 µM

Structure (SMILES): C=C(C)[C@@H]1CC[C@]2(C(=O)NCCc3cccnc3)CC[C@]3(C)[C@H](CC[C@@H]4[C@@]5(C)CC[C@H](OC(=O)CC(C)(C)C(=O)O)C(C)(C)[C@@H]5CC[C@]43C)[C@@H]12 [Compound 93]
- EC50: < 0.1 µM

Structure (SMILES): C=C(C)[C@@H]1CC[C@]2(C(=O)NCc3cccc4ccccc34)CC[C@]3(C)[C@H](CC[C@@H]4[C@@]5(C)CC[C@H](OC(=O)CC(C)(C)C(=O)O)C(C)(C)[C@@H]5CC[C@]43C)[C@@H]12 [Compound 94]
- EC50: < 0.1 µM

Structure (SMILES): C=C(C)[C@@H]1CC[C@]2(C(=O)NCc3ccoc3)CC[C@]3(C)[C@H](CC[C@@H]4[C@@]5(C)CC[C@H](OC(=O)CC(C)(C)C(=O)O)C(C)(C)[C@@H]5CC[C@]43C)[C@@H]12 [Compound 95]
- EC50: < 0.1 µM

Structure (SMILES): C=C(C)[C@@H]1CC[C@]2(C(=O)NCCOc3ccc(OC)cc3)CC[C@]3(C)[C@H](CC[C@@H]4[C@@]5(C)CC[C@H](OC(=O)CC(C)(C)C(=O)O)C(C)(C)[C@@H]5CC[C@]43C)[C@@H]12 [Compound 97]
- EC50: < 0.1 µM

Structure (SMILES): C=C(C)[C@@H]1CC[C@]2(C(=O)NCc3ccc(N(C)C)cc3)CC[C@]3(C)[C@H](CC[C@@H]4[C@@]5(C)CC[C@H](OC(=O)CC(C)(C)C(=O)O)C(C)(C)[C@@H]5CC[C@]43C)[C@@H]12 [Compound 99]
- EC50: < 0.1 µM

Structure (SMILES): C=C(C)[C@@H]1CC[C@]2(C(=O)NCCc3ccc(C(=O)O)cc3)CC[C@]3(C)[C@H](CC[C@@H]4[C@@]5(C)CC[C@H](OC(=O)CC(C)(C)C(=O)O)C(C)(C)[C@@H]5CC[C@]43C)[C@@H]12 [Compound 100]
- EC50: < 0.1 µM

Structure (SMILES): C=C(C)[C@@H]1CC[C@]2(C(=O)NCc3c(C)coc3C(F)(F)F)CC[C@]3(C)[C@H](CC[C@@H]4[C@@]5(C)CC[C@H](OC(=O)CC(C)(C)C(=O)O)C(C)(C)[C@@H]5CC[C@]43C)[C@@H]12 [Compound 101]
- EC50: < 0.1 µM

Structure (SMILES): C=C(C)[C@@H]1CC[C@]2(C(=O)NCCCc3ccc(OC)c(OC)c3)CC[C@]3(C)[C@H](CC[C@@H]4[C@@]5(C)CC[C@H](OC(=O)CC(C)(C)C(=O)O)C(C)(C)[C@@H]5CC[C@]43C)[C@@H]12 [Compound 102]
- EC50: < 0.1 µM

Structure (SMILES): C=C(C)[C@@H]1CC[C@]2(C(=O)NCc3cc(OC)c(OC)c(OC)c3)CC[C@]3(C)[C@H](CC[C@@H]4[C@@]5(C)CC[C@H](OC(=O)CC(C)(C)C(=O)O)C(C)(C)[C@@H]5CC[C@]43C)[C@@H]12 [Compound 103]
- EC50: < 0.1 µM

Structure (SMILES): C=C(C)[C@@H]1CC[C@]2(C(=O)NCCCc3ccc(OC)cc3)CC[C@]3(C)[C@H](CC[C@@H]4[C@@]5(C)CC[C@H](OC(=O)CC(C)(C)C(=O)O)C(C)(C)[C@@H]5CC[C@]43C)[C@@H]12 [Compound 104]
- EC50: < 0.1 µM

Structure (SMILES): C=C(C)[C@@H]1CC[C@]2(C(=O)NC(C)c3ccccn3)CC[C@]3(C)[C@H](CC[C@@H]4[C@@]5(C)CC[C@H](OC(=O)CC(C)(C)C(=O)O)C(C)(C)[C@@H]5CC[C@]43C)[C@@H]12 (some centres unmarked) [Compound 105]
- EC50: < 0.1 µM

Structure (SMILES): C=C(C)[C@@H]1CC[C@]2(C(=O)NCc3nc4ccccc4s3)CC[C@]3(C)[C@H](CC[C@@H]4[C@@]5(C)CC[C@H](OC(=O)CC(C)(C)C(=O)O)C(C)(C)[C@@H]5CC[C@]43C)[C@@H]12 [Compound 106]
- EC50: < 0.1 µM

Structure (SMILES): C=C(C)[C@@H]1CC[C@]2(C(=O)NCc3cccc(C)n3)CC[C@]3(C)[C@H](CC[C@@H]4[C@@]5(C)CC[C@H](OC(=O)CC(C)(C)C(=O)O)C(C)(C)[C@@H]5CC[C@]43C)[C@@H]12 [Compound 108]
- EC50: < 0.1 µM

Structure (SMILES): C=C(C)[C@@H]1CC[C@]2(C(=O)NCc3nc4ccccc4n3C)CC[C@]3(C)[C@H](CC[C@@H]4[C@@]5(C)CC[C@H](OC(=O)CC(C)(C)C(=O)O)C(C)(C)[C@@H]5CC[C@]43C)[C@@H]12 [Compound 109]
- EC50: < 0.1 µM

Structure (SMILES): C=C(C)[C@@H]1CC[C@]2(C(=O)NCc3nc4ccccc4[nH]3)CC[C@]3(C)[C@H](CC[C@@H]4[C@@]5(C)CC[C@H](OC(=O)CC(C)(C)C(=O)O)C(C)(C)[C@@H]5CC[C@]43C)[C@@H]12 [Compound 110]
- EC50: < 0.1 µM

Structure (SMILES): C=C(C)[C@@H]1CC[C@]2(C(=O)NCc3ccc4ccccc4n3)CC[C@]3(C)[C@H](CC[C@@H]4[C@@]5(C)CC[C@H](OC(=O)CC(C)(C)C(=O)O)C(C)(C)[C@@H]5CC[C@]43C)[C@@H]12 [Compound 111]
- EC50: < 0.1 µM

Structure (SMILES): C=C(C)[C@@H]1CC[C@]2(C(=O)NCc3cc(C)ccn3)CC[C@]3(C)[C@H](CC[C@@H]4[C@@]5(C)CC[C@H](OC(=O)CC(C)(C)C(=O)O)C(C)(C)[C@@H]5CC[C@]43C)[C@@H]12 [Compound 112]
- EC50: < 0.1 µM

Structure (SMILES): C=C(C)[C@@H]1CC[C@]2(C(=O)NCc3ncccc3C)CC[C@]3(C)[C@H](CC[C@@H]4[C@@]5(C)CC[C@H](OC(=O)CC(C)(C)C(=O)O)C(C)(C)[C@@H]5CC[C@]43C)[C@@H]12 [Compound 113]
- EC50: < 0.1 µM

Structure (SMILES): C=C(C)[C@@H]1CC[C@]2(C(=O)NCc3ccc(Cl)cn3)CC[C@]3(C)[C@H](CC[C@@H]4[C@@]5(C)CC[C@H](OC(=O)CC(C)(C)C(=O)O)C(C)(C)[C@@H]5CC[C@]43C)[C@@H]12 [Compound 114]
- EC50: < 0.1 µM

Structure (SMILES): C=C(C)[C@@H]1CC[C@]2(C(=O)NC(Cc3ccccc3)C(=O)O)CC[C@]3(C)[C@H](CC[C@@H]4[C@@]5(C)CC[C@H](OC(=O)CC(C)(C)C(=O)O)C(C)(C)[C@@H]5CC[C@]43C)[C@@H]12 (some centres unmarked) [Compound 115]
- EC50: < 0.1 µM

Structure (SMILES): C=C(C)[C@@H]1CC[C@]2(C(=O)N[C@@H](C)c3ccc(OC)cc3)CC[C@]3(C)[C@H](CC[C@@H]4[C@@]5(C)CC[C@H](OC(=O)CC(C)(C)C(=O)O)C(C)(C)[C@@H]5CC[C@]43C)[C@@H]12 [Compound 117]
- EC50: < 0.1 µM
